The text below walks through data of US20080318938A1, “METHODS FOR TREATING ABERRANT CELL PROLIFERATION DISORDERS” (priority 2007, published 2008).

Like-named read-outs stand apart in the source and are kept apart here.

The test system of series [1] is σ (non-selective) sigma receptors. In words: Receptor binding.
Another series has as its target Adenosine A2A receptors (Homo sapiens, UniProt P29274). In words: Receptor binding.
Series [2] deals with sst (non-selective) Somatostatin receptor. The series can be described thus: Receptor binding.
Series [3] can be described thus: TA1-1B in plasma, brain and tumor of HCT116 tumor-bearing mice. It counts as in vivo. The conditions noted are these: 25.0 mg/kg single IV dose; for concentration at 15 min / concentration at 2 h: female, NCr nu/nu, mouse; for concentration at 15 min: 15 min post-dose; for concentration at 2 h: two hour post-dose. From the text: In vivo experiment protocols were approved by the Animal Use and Care Committee. Female NCr nu/nu mice were purchased from Taconic Farms and group housed in a ventilated rack system on a 12/12 light cycle. All housing materials and water were autoclaved prior to use. The mice were fed ad libitum with gamma-irradiated laboratory chow and acidified water. Animals were handled under laminar-flow hoods. Animals were inoculated subcutaneously in the right flank with 5×10̂6 HCT116 cells. Tumors were monitored twice weekly and then daily as they approached the appropriate size for study. On Day 1 of the study, the animals were randomized into n=3 treatment groups with group average tumor sizes of 109 mm^3.
where w=width and 1=length in mm of the tumor. Tumor weight was estimated with the assumption that 1 mg is equivalent to 1 mm^3 of tumor volume. Mice were dosed with compound TA1-1B at 25.0 mg/kg (single IV dose). At fifteen min and two hour time points, plasma, brain and tumor samples were collected from terminal mice and frozen. It was determined that the tumor contained 0.86 μM, plasma contained 0.74 μM and brain contained 1.47 μM of the therapeutic agent after 15 min post-dose, and the tumor contained 1.6 μM, plasma contained 0.41 μM and brain contained 0.8 μM of the therapeutic agent after the two hour post-dose.

The next series concerns the target M4 Muscarinic receptor (Homo sapiens, UniProt P08173). In words: Receptor binding.
The next series deals with M1 Muscarinic receptor (Homo sapiens, UniProt P11229). The series can be described thus: Receptor binding.
[4] abbreviates: brain, read-out: Concentration in brain.
Setting [5] is: plasma, read-out: Concentration in plasma.
The mark [6] stands for this setting: tumor, read-out: Concentration in tumor.

M4 Muscarinic receptor, sequence (P08173 whole entry): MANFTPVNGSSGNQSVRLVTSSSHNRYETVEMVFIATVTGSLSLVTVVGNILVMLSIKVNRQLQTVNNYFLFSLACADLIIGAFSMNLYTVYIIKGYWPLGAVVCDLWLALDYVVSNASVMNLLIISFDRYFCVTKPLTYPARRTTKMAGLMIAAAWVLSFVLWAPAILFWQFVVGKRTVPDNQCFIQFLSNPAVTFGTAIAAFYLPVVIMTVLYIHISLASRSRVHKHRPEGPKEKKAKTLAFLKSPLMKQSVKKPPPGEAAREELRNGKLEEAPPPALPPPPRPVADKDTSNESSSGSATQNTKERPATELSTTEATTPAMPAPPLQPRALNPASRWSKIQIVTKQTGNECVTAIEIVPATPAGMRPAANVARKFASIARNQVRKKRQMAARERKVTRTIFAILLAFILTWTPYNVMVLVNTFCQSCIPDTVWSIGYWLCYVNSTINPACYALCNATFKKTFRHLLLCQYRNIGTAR
Adenosine A2A receptors, sequence (P29274 whole entry): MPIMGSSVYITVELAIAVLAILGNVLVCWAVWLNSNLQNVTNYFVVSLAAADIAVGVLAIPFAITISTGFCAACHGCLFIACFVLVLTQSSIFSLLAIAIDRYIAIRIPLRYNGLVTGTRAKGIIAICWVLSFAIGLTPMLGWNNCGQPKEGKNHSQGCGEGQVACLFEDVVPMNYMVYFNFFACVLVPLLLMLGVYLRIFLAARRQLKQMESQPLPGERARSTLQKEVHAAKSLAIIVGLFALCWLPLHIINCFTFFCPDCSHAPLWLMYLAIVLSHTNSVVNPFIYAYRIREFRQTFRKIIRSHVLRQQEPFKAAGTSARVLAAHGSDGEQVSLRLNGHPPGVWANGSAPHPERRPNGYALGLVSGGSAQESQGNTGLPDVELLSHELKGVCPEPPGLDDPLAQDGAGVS
M1 Muscarinic receptor, sequence (P11229 whole entry): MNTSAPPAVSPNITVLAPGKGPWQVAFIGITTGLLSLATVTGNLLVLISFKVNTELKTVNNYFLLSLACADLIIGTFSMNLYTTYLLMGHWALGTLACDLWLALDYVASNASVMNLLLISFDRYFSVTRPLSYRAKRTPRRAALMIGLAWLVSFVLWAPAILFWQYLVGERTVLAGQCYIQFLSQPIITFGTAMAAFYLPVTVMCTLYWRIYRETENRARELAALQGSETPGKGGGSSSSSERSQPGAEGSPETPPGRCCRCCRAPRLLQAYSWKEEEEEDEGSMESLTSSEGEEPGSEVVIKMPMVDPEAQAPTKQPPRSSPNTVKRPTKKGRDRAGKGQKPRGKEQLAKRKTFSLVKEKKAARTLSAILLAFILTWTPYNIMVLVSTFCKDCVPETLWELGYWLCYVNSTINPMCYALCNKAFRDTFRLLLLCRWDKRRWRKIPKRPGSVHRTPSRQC

What is called inhibition is how much of the control response was suppressed. Lower therefore signals little suppression. Consider `CN1CCC[C@H]1CCNC(=O)c1cn2c3c(c(N4CCC(c5cnccn5)C4)c(F)cc3c1=O)Oc1cc3ccccc3cc1-2` (stereo partly drawn) [TA1-1B], for which the “% inhibition @ 1 uM” value in series [1] was 67%; in series [2], 62%. For the same molecule, the inhibition at 1 µM amounted to 60% on Adenosine A2A receptors, 87% on M4 Muscarinic receptor and 98% on M1 Muscarinic receptor. In series [3] (heading of Example 3), the Blood-brain barrier permeation result is reported as “Permeates the Blood-Brain Barrier”. Moreover, the values for the concentration at 15 min in series [3] (setting [4]), in series [3] (setting [5]) and in series [3] (setting [6]) were 1470 nM, 740 nM and 860 nM, respectively. The concentration at 2 h in series [3] (setting [4]) was 800 nM; in series [3] (setting [5]), 410 nM; in series [3] (setting [6]), 1600 nM.
